Data: article PMC7181131, “N-Pyrazinoyl Substituted Amino Acids as Potential Antimycobacterial Agents—the Synthesis and Biological Evaluation of Enantiomers” (Molecules, 2020)
Values after ≈ are worked out from the molar mass of the structure shown. Read-outs that look alike come from different tables or passages of the source.

Key:
[1] = test system: Aspergillus flavus CCM 8363; experiment: Antifungal microdilution broth method, AFla; assay type: cell-based; conditions: CCM8363, read after 48 h (filamentous fungi), read-out: MIC AFla
HepG2 cell line = experiment: HepG2 cytotoxicity, CellTiter 96 (MTS) assay; assay type: cell-based, human; conditions: Homo sapiens, read-out: HepG2 IC50
[2] = test system: M. smegmatis DSM 43465 (ATCC 607); experiment: Microplate Alamar Blue Assay (MABA) microdilution, M. smegmatis; assay type: cell-based, Mycobacterium smegmatis
[3] = test system: Lichtheimia corymbifera CCM 8077; experiment: Antifungal microdilution broth method, LC; assay type: cell-based; conditions: CCM8077, 48 h, read-out: MIC LC
[4] = test system: Mtb H37Ra ITM-M006710 (ATCC 9431); experiment: Microplate Alamar Blue Assay (MABA) microdilution, Mtb H37Ra; assay type: cell-based, Mycobacterium tuberculosis; conditions: Mycobacterium tuberculosis
[5] = test system: Aspergillus fumigatus ATCC 204305; experiment: Antifungal microdilution broth method, AF; assay type: cell-based; conditions: ATCC204305, 48 h, read-out: MIC AF
[6] = test system: Mycobacterium aurum DSM 43999 (ATCC 23366); experiment: Microplate Alamar Blue Assay (MABA) microdilution, M. aurum; assay type: cell-based
[7] = test system: Candida tropicalis CCM 8264 (ATCC 750); experiment: Antifungal microdilution broth method, CT; assay type: cell-based; conditions: 24 h, read-out: MIC CT
[8] = test system: Candida krusei CCM 8271 (ATCC 6258); experiment: Antifungal microdilution broth method, CK; assay type: cell-based; conditions: Pichia kudriavzevii, 24 h, read-out: MIC CK
[9] = test system: Trichophyton interdigitale CCM 8377 (ATCC 9533); experiment: Antifungal microdilution broth method, TI; assay type: cell-based; conditions: 48 h, read-out: MIC TI
[10] = test system: Klebsiella pneumoniae CCM 4415 (ATCC 10031); experiment: Antibacterial microdilution broth method, KP; conditions: read after 24 h of incubation
[11] = test system: Staphylococcus epidermidis CCM 4418 (ATCC 12228); experiment: Antibacterial microdilution broth method, SE; assay type: cell-based; conditions: 24 h, read-out: MIC SE
[12] = test system: Candida albicans CCM 8320 (ATCC 24433); experiment: Antifungal microdilution broth method, CA; assay type: cell-based; conditions: 24 h, read-out: MIC CA
[13] = test system: Candida parapsilosis CCM 8260 (ATCC 22019); experiment: Antifungal microdilution broth method, CP; assay type: cell-based; conditions: Lodderomyces parapsilosis, 24 h, read-out: MIC CP
[14] = test system: Mycobacterium tuberculosis H37Rv CNCTC My 331/88 (ATCC 27294); experiment: Antimycobacterial pre-screening, microdilution broth, Mtb H37Rv; assay type: cell-based; conditions: Middlebrook 7H9 broth of declared pH 6.6
[15] = test system: M. kansasii CNCTC My 235/80 (ATCC 12478); experiment: Antimycobacterial pre-screening, microdilution broth, M. kansasii; assay type: cell-based; conditions: Mycobacterium kansasii, ATCC12478; Middlebrook 7H9 broth of declared pH 6.6
[16] = test system: M. avium ssp. avium CNCTC My 80/72 (ATCC 15769); experiment: Antimycobacterial pre-screening, microdilution broth, M. avium; assay type: cell-based; conditions: Mycobacterium avium, ATCC15769; Middlebrook 7H9 broth of declared pH 6.6
[17] = HepG2, 24 h incubation, CellTiter 96
[18] = Mycolicibacterium smegmatis, pH 6, read-out: MIC M. smegmatis µg/mL
[19] = Mycolicibacterium smegmatis, pH 6.6, read-out: MIC M. smegmatis
[20] = pH 6.6, read-out: MIC Mtb H37Ra
[21] = pH 6, Table 4, read-out: Mtb pH 6 MIC
[22] = pH 6, calculated from µg/mL, read-out: MIC Mtb H37Ra
[23] = Mycolicibacterium aurum, pH 6, read-out: MIC M. aurum µg/mL
[24] = Mycolicibacterium aurum, pH 6.6, read-out: MIC M. aurum

Row | Structure (SMILES) | MIC [1] [µM] | MIC [2, 18] [µg/mL] | MIC [2, 19] [µg/mL] | MIC [3] [µM] | MIC ([4]; pH 6) [µg/mL] | MIC ([4]; pH 6, read-out: MIC Mtb H37Ra) [µg/mL] | MIC [4, 20] [µg/mL] | MIC [4, 22] [µM] | MIC [5] [µM] | MIC [6, 23] [µg/mL] | MIC [6, 24] [µg/mL] | MIC [7] [µM] | MIC [8] [µM] | MIC [9] [µM] | MIC KP [10] [µM] | MIC [11] [µM] | MIC [12] [µM] | MIC [13] [µM] | IC50 (HepG2 cell line; HepG2, 24 h) [µM] | MIC ([4]; pH 6, read-out: Mtb pH 6 MIC) [µM] | other results
1 | CCOC(=O)[C@H](Cc1ccc(O)cc1)NC(=O)c1cnccn1 [PC-L-Tyr-Et, ethyl (pyrazine-2-carbonyl)-L-tyrosinate] | > 500 | ≥ 250 | ≥ 500 | > 500 | 7.81 | 7.81 | 500 | 24.8 | > 500 | ≥ 250 | ≥ 500 | > 500 | > 500 | > 500 | > 500 | > 500 | > 500 | > 500 |  |  | IC50 (HepG2 cell line; [17]): 177 µM; MIC [4, 21]: 25 µM
2 | COC(=O)[C@@H](NC(=O)c1cnccn1)[C@@H](C)OC(C)(C)C [PC-L-OtBu-Thr-Me, methyl O-(tert-butyl)-N-(pyrazine-2-carbonyl)-L-threoninate] | > 500 | ≥ 500 | ≥ 500 | > 500 | ≥ 500 | ≥ 500 | ≥ 500 | ≥ 1690 | > 500 | ≥ 500 | ≥ 500 | > 500 | > 500 | > 500 | > 500 | 62.5 (≈ 18.5 µg/mL) | > 500 | > 500 | > 500 | 1690 | 
3 | COC(=O)[C@H](COCc1ccccc1)NC(=O)c1cnccn1 [PC-L-OBn-Ser-Me, methyl O-benzyl-N-(pyrazine-2-carbonyl)-L-serinate] | > 250 | ≥ 500 | ≥ 500 | > 250 | 7.81 | 7.81 | 250 | 24.8 | > 250 | 62.5 (≈ 198 µM) | ≥ 500 | 125 (≈ 39.4 µg/mL) | > 250 | > 250 |  | > 250 | > 250 | > 250 | 742 | 25 | 
4 | NNC(=O)c1ccncc1 [INH, isoniazid, reference compound] |  |  |  |  |  | 0.125 to 0.25 | 0.125 to 0.25 | 0.91 to 1.82 |  |  |  |  |  |  |  |  |  |  |  |  | MIC ([2]; Mycolicibacterium smegmatis, pH 6; read-out: MIC M. smegmatis): 7.81 to 15.6 µg/mL (≈ 56.9 to 114 µM); MIC ([2]; Mycolicibacterium smegmatis, pH 6.6; read-out: MIC M. smegmatis): 7.81 to 15.6 µg/mL (≈ 56.9 to 114 µM); MIC [14]: 0.39 µg/mL (≈ 2.84 µM); MIC [15]: 25 µg/mL (≈ 182 µM); MIC ([6]; Mycolicibacterium aurum, pH 6; read-out: MIC M. aurum): 3.91 to 7.81 µg/mL (≈ 28.5 to 56.9 µM); MIC ([6]; Mycolicibacterium aurum, pH 6.6; read-out: MIC M. aurum): 1.95 to 3.91 µg/mL (≈ 14.2 to 28.5 µM); MIC [16]: 25 µg/mL (≈ 182 µM)
5 | C[C@H](NC(=O)c1cnccn1)C(=O)O [PC-L-Ala, (pyrazine-2-carbonyl)-L-alanine] | > 500 | 125 (≈ 640 µM) | ≥ 250 | > 500 | ≥ 250 | ≥ 250 | ≥ 250 | ≥ 1280 | > 500 | 62.5 (≈ 320 µM) | ≥ 250 | > 500 | > 500 | > 500 | > 500 | > 500 | > 500 | > 500 |  |  | IC50 (HepG2 cell line; [17]): > 250 µM; MIC [4, 21]: ≥ 1280 µM
6 | COC(=O)C(NC(=O)c1cnccn1)c1ccccc1 [PC-D/L-Pgl-Me, methyl 2-phenyL-2-(pyrazine-2-carboxamido)acetate] | > 500 | ≥ 250 | ≥ 500 | > 500 | < 1.95 | < 1.95 | ≥ 500 | < 7.3 | > 500 | 31.2 (≈ 115 µM) | ≥ 500 | 500 (≈ 136 µg/mL) | > 500 | > 500 | > 500 | > 500 | > 500 | > 500 | > 1000 | < 7 | 
7 | COC(=O)[C@H](CCSC)NC(=O)c1cnccn1 [PC-L-Met-Me, methyl (pyrazine-2-carbonyl)-L-methioninate] | > 500 | ≥ 500 | ≥ 500 | > 500 | < 3.91 | < 3.91 | ≥ 500 | < 14.5 | > 500 | 62.5 (≈ 232 µM) | ≥ 500 | > 500 | > 500 | 500 (≈ 135 µg/mL) | > 500 | > 500 | > 500 | > 500 | > 100 | 15 | 
8 | CCOC(=O)[C@H](Cc1c[nH]c2ccccc12)NC(=O)c1cnccn1 [PC-L-Trp-Et, ethyl (pyrazine-2-carbonyl)-L-tryptophanate] | > 500 | 250 (≈ 739 µM) | 250 (≈ 739 µM) | > 500 | 125 | 125 | 125 | 369 | > 500 | 62.5 (≈ 185 µM) | 125 (≈ 369 µM) | > 500 | > 500 | > 500 | > 500 | > 500 | > 500 | > 500 | 147 | 125 | 
